The source of these data is US11339161B2, “Triazolo pyridines as modulators of gamma-secretase” (Boehringer Ingelheim International GmbH, priority 2017, dated 2022).

The inhibition is the share of the control response that was lost under treatment. What is called IC50 is the concentration at which inhibition is half-maximal.

Test [1] concerns the target MAP4K4 (HGK) (Homo sapiens, UniProt O95819). In words: Z'-LYTE SelectScreen biochemical kinase assay MAP4K4 (HGK). From the text: (§1) Thermo Fisher Scientific SelectScreen™ Biochemical Kinase Profiling Service Z′-LYTE™ Screening Protocol and Assay Conditions Assay Theory
(§2) The […] biochemical assay employs a fluorescence-based, coupled-enzyme format and is based on the differential sensitivity of phosphorylated and non-phosphorylated peptides to proteolytic cleavage. The peptide substrate is labeled with two fluorophores—one at each end—that make up a FRET pair. In the primary reaction, the kinase transfers the gamma-phosphate of ATP to a single tyrosine, serine or threonine residue in a synthetic FRET-peptide. In the secondary reaction, a site-specific protease recognizes and cleaves non-phosphorylated FRET-peptides. Phosphorylation of FRET-peptides suppresses cleavage by the Development Reagent. Cleavage disrupts FRET between the donor (i.e., coumarin) and acceptor (i.e., fluorescein) fluorophores on the FRET-peptide, whereas uncleaved, phosphorylated FRET-peptides maintain FRET. A ratiometric method, which calculates the ratio (Emission Ratio=Coumarin emission (445 nm)/Fluorescein emission (520 nm)) of donor emission to acceptor emission after excitation of the donor fluorophore at 400 nm, is used to quantitate reaction progress, as shown in the equation below. A significant benefit of this ratiometric method for quantitating reaction progress is the elimination of well-to-well variations in FRET-peptide concentration and signal intensities. As a result, the assay yields very high Z′-factor values (>0.7) at a low percent phosphorylation. Both cleaved and uncleaved FRET-peptides contribute to the fluorescence signals and therefore to the Emission Ratio. The extent of phosphorylation of the FRET-peptide can be calculated from the Emission Ratio. The Emission Ratio will remain low if the FRET-peptide is phosphorylated (i.e., no kinase inhibition) and will be high if the FRET-peptide is non-phosphorylated (i.e., kinase inhibition).
(§3) The Test Compounds are screened in 1% DMSO (final) in the well. For 10 point titrations, 3-fold serial dilutions are conducted from the starting concentration of the customer's choosing.
(§4) All Peptide/Kinase Mixtures are diluted to a 2× working concentration in the appropriate Kinase Buffer (see section Kinase Specific Assay Conditions for a complete description).
(§5) All ATP Solutions are diluted to a 4× working concentration in Kinase Buffer (50 mM HEPES pH 7.5, 0.01% BRIJ-35, 10 mM MgCl2, 1 mM EGTA). ATP Km apparent is previously determined using a Z″-LYTE assay.
(§6) The Development Reagent is diluted in Development Buffer (see section Kinase-Specific Assay Conditions—Direct and Cascade for a complete description).
(§7) Bar-coded Corning, low volume NBS, black 384-well plate (Corning Cat. #4514) • 1. 100 nL—100× Test Compound in 100% DMSO • 2. 2.4 μL—Kinase buffer • 3. 5 μL—2× Peptide/Kinase Mixture • 4. 2.5 μL—4×ATP Solution • 5. 30—second plate shake • 6. 60—minute Kinase Reaction incubation at room temperature • 7. 5 μL—Development Reagent Solution • 8. 30—second plate shake • 9. 60—minute Development Reaction incubation at room temperature • 10. Read on fluorescence plate reader and analyze the data Z′-LYTE Assay Controls
(§8) SelectScreen Kinase Profiling Service uses XLfit from IDBS. The dose response curve is curve fit to model number 205 (sigmoidal dose-response model).
The 2×MAP4K4 (HGK)/Ser/Thr 07 mixture is prepared in 50 mM HEPES pH 7.5, 0.01% BRIJ-35, 10 mM MgCl2, 1 mM EGTA. The final 10 μL Kinase Reaction consists of 0.36-1.82 ng MAP4K4 (HGK) and 2 μM Ser/Thr 07 in 50 mM HEPES pH 7.5, 0.01% BRIJ-35, 10 mM MgCl2, 1 mM EGTA. After the 1 hour Kinase Reaction incubation, 5 μL of a 1:45000 dilution of Development Reagent A is added.

The test system of test [2] is Aβ42 production. In words: Inhibition of Aβ42 production in H4 neuroglioma cells stably expressing human APP695 (MSD electrochemiluminescence). The test is classed as cell-based.
The target in test [3] is FLT4 (VEGFR3) (Homo sapiens, UniProt P35916). The test can be described thus: Z'-LYTE SelectScreen biochemical kinase assay FLT4 (VEGFR3).
Sequence of FLT4 (VEGFR3) (P35916 25-1363): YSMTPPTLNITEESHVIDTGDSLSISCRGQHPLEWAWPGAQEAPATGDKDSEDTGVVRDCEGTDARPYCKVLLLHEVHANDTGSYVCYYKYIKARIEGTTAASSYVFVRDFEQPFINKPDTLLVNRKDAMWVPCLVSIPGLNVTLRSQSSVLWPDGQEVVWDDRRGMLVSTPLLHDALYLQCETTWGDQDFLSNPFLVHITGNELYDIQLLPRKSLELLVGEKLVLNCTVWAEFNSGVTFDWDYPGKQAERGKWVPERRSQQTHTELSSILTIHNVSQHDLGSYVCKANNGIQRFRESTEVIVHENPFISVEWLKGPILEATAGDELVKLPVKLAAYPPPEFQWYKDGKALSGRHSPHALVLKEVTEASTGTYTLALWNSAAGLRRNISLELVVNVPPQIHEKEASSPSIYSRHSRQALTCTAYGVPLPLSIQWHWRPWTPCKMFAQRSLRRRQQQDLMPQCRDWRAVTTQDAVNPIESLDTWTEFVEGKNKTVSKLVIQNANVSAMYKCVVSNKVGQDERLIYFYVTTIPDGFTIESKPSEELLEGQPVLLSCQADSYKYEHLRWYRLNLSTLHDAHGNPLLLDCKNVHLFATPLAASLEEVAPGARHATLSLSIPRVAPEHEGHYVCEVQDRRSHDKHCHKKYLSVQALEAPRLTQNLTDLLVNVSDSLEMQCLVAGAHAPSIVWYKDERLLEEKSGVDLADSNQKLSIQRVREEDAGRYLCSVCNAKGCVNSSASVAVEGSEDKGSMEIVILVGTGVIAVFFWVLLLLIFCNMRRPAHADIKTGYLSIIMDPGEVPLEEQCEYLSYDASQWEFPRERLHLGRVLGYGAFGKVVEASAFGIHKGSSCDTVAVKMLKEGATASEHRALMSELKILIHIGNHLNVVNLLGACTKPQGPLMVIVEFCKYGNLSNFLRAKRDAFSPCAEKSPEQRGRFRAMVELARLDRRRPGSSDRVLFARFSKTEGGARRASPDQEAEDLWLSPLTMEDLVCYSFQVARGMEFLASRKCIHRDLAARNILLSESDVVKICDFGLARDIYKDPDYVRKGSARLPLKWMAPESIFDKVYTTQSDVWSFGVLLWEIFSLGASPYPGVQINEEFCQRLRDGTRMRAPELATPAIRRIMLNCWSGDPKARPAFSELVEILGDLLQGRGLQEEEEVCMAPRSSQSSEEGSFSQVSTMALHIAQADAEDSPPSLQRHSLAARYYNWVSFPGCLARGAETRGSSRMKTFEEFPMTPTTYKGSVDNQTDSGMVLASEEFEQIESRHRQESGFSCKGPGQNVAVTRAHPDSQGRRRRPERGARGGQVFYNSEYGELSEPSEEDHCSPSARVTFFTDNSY
From the text: as §1, §2, §3, §4, §5, §6, §7, §8
The 2×FLT4 (VEGFR3)/Tyr 04 mixture is prepared in 50 mM HEPES pH 7.5, 0.01% BRIJ-35, 10 mM MgCl2, 4 mM MnCl2, 1 mM EGTA, 2 mM DTT. The final 10 μL Kinase Reaction consists of 2-10.5 ng FLT4 (VEGFR3) and 2 μM Tyr 04 in 50 mM HEPES pH 7.5, 0.01% BRIJ-35, 10 mM MgCl2, 2 mM MnCl2, 1 mM EGTA, 1 mM DTT. After the 1 hour Kinase Reaction incubation, 5 μL of a 1:64 dilution of Development Reagent B is added.

Test [4] concerns the target RET (Homo sapiens, UniProt P07949). In words: Z'-LYTE SelectScreen biochemical kinase assay RET.
From the text: as §1, §2, §3, §4, §5, §6, §7, §8
The 2×RET/Tyr 02 mixture is prepared in 50 mM HEPES pH 7.5, 0.01% BRIJ-35, 10 mM MgCl2, 1 mM EGTA. The final 10 μL Kinase Reaction consists of 0.49-3.64 ng RET and 2 μM Tyr 02 in 50 mM HEPES pH 7.5, 0.01% BRIJ-35, 10 mM MgCl2, 1 mM EGTA. After the 1 hour Kinase Reaction incubation, 5 μL of a 1:128 dilution of Development Reagent A is added.

Setting [5] is: 10 μmolar compound concentration, ATP at Km app, read-out: MAP4K4 (HGK) inhibition.
Setting [6] is: read-out: % Inhibition mean MAP4K4 (HGK).
Setting [7] is: H4 neuroglioma cells expressing human APP695, 22 hours incubation, Table 4a.
[8] abbreviates: 10 μmolar compound concentration, ATP at Km app, read-out: FLT4 (VEGFR3) inhibition.
The mark [9] stands for this setting: read-out: % Inhibition mean FLT4 (VEGFR3).
Where [10] appears, read: 10 μmolar compound concentration, ATP at Km app, read-out: RET inhibition.
The mark [11] stands for this setting: read-out: % Inhibition mean RET.

The structures appear in SMILES notation. Like-named read-outs stand apart in the source and are kept apart here.

Sequence of RET (P07949 29-1114): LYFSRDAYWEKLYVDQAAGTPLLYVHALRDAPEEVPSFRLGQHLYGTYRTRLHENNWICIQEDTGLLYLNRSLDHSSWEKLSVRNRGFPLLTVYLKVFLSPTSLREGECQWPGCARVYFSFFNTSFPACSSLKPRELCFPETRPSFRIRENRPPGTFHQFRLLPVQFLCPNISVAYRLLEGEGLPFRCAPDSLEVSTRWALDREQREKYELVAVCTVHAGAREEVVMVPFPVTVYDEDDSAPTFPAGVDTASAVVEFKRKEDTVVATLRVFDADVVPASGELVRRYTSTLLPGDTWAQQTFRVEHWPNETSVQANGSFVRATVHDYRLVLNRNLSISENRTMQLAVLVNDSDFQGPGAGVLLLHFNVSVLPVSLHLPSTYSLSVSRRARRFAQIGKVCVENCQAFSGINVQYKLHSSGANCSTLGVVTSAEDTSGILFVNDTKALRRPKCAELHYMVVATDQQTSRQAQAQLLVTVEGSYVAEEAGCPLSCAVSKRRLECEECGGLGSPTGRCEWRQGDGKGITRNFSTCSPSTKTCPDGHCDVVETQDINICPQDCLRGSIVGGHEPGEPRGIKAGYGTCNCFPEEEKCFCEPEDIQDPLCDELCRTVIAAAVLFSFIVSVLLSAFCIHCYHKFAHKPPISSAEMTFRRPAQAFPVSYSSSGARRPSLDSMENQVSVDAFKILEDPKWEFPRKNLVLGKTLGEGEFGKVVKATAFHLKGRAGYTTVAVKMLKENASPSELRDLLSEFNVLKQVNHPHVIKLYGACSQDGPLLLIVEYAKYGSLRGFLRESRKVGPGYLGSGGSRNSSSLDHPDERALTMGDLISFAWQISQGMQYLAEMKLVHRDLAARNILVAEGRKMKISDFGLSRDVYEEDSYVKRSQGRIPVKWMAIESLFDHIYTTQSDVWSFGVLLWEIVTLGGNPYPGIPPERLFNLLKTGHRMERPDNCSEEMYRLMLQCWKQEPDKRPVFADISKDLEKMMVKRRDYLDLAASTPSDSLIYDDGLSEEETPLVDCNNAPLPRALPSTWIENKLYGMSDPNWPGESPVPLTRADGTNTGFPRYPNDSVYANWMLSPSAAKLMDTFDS
Sequence of MAP4K4 (HGK) (O95819 whole entry): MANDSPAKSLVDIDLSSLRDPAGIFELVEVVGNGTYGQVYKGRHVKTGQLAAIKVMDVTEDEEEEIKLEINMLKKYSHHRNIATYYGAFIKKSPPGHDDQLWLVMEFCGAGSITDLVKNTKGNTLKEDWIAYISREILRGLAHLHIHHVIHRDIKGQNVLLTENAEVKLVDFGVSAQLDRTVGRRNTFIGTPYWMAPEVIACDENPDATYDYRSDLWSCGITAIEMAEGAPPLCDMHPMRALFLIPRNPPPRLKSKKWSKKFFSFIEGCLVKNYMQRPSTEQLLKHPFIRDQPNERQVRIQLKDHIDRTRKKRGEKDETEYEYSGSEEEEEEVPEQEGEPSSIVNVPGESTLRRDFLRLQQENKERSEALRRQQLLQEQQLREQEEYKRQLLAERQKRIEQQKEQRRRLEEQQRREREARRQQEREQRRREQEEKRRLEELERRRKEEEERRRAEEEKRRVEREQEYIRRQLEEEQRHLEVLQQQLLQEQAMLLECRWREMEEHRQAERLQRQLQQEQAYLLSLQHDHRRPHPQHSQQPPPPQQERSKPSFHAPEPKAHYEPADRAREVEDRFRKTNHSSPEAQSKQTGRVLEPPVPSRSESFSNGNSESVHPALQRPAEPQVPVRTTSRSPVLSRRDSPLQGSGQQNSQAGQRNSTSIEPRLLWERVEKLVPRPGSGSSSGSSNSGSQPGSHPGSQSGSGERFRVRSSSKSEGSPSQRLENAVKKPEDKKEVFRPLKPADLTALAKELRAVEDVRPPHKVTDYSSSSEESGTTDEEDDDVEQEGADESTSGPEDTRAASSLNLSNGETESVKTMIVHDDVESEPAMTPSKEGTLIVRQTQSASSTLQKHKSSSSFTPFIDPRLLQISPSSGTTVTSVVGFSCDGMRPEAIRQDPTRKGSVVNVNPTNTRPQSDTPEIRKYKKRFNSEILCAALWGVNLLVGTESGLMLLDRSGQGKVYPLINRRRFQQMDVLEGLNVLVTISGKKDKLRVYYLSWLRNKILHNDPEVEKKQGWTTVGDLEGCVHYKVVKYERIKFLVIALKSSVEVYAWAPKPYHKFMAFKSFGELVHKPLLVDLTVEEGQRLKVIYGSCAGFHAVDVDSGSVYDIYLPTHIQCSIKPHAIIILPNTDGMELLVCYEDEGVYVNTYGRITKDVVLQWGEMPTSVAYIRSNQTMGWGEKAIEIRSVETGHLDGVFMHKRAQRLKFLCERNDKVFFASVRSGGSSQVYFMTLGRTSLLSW

On to `CCc1nn(C)c2c1CCC(Nc1nc3c(-c4ccc(F)cc4C)cccn3n1)C2` (centres unmarked) [Example 54, (3-Ethyl-1-methyl-4,5,6,7-tetrahydro-1H-indazol-6-yl)-[8-(4-fluoro-2-methyl-phenyl)-[1,2,4]triazolo[1,5-a]pyridine-2-yl]-amine], for which the inhibition at 10 µM in test [1] (setting [5]) was < 40%; in test [1] (setting [6]), 25%; in test [3] (setting [8]), < 40%; in test [3] (setting [9]), 38%; in test [4] (setting [10]), < 40%; in test [4] (setting [11]) it was 15%. In test [2] (setting [7]), this compound showed an IC50 of 3130 nM.

As for `Cc1cc(F)ccc1-c1cccn2nc(NC3CCc4cnn(C)c4C3)nc12` (centres unmarked) [Example 40, [8-(4-Fluoro-2-methyl-phenyl)-[1,2,4]triazolo[1,5-a]pyridine-2-yl]-(1-methyl-4,5,6,7-tetrahydro-1H-indazol-6-yl)-amine], the inhibition at 10 µM in test [1] (setting [5]) was 40 to 80%; in test [1] (setting [6]), 45%; in test [3] (setting [8]) it was < 40%; in test [3] (setting [9]), 16%; in test [4] (setting [10]), < 40%; in test [4] (setting [11]) it was 18%. The IC50 in test [2] (setting [7]) is > 30000 nM.

Consider `CCn1nc(Cl)c2c1CCC(Nc1nc3c(-c4ccc(F)cc4C)cccn3n1)C2` (centres unmarked) [Example 48, (3-Chloro-1-ethyl-4,5,6,7-tetrahydro-1H-indazol-5-yl)-[8-(4-fluoro-2-methyl-phenyl)-[1,2,4]triazolo[1,5-a]pyridine-2-yl]-amine], for which the inhibition at 10 µM in test [1] (setting [5]) was 40 to 80%; in test [1] (setting [6]) it was 50%; in test [3] (setting [8]), < 40%; in test [3] (setting [9]), 19%; in test [4] (setting [10]) it was < 40%; in test [4] (setting [11]), 18%. For the same compound, 750 nM corresponded to half-maximal inhibition in test [2] (setting [7]) (IC50).

Take `CCn1ncc2c1C(C)CC(Nc1nc3c(-c4cc(F)c(F)c(F)c4)cccn3n1)C2` (centres unmarked) [Example 49, (1-Ethyl-7-methyl-4,5,6,7-tetrahydro-1H-indazol-5-yl)-[8-(3,4,5-trifluoro-phenyl)-[1,2,4]triazolo[1,5-a]pyridine-2-yl]-amine]: the inhibition at 10 µM in test [1] (setting [5]) is 40 to 80%; in test [1] (setting [6]), 54%; in test [3] (setting [8]), < 40%; in test [3] (setting [9]) it was 33%; in test [4] (setting [10]) it was < 40%; in test [4] (setting [11]), 22%. Also, in test [2] (setting [7]), the IC50 was 950 nM.

For the compound `Cc1cc(F)ccc1-c1cccn2nc(Nc3ccc4c(cnn4C)c3)nc12` [Example 9, [8-(4-fluoro-2-methyl-phenyl)-[1,2,4]triazolo[1,5-a]pyridine-2-yl]-(1-methyl-1H-indazol-5-yl)-amine], the inhibition at 10 µM in test [1] (setting [5]) is < 40%; in test [1] (setting [6]), 6%; in test [3] (setting [8]), > 80%; in test [3] (setting [9]), 86%; in test [4] (setting [10]), < 40%; in test [4] (setting [11]), 39%. Also, it took 1260 nM to reach half-maximal inhibition in test [2] (setting [7]) (IC50).

In the case of `Cc1cc(F)ccc1-c1cccn2nc(NC3CCc4c(cnn4CC(C)C)C3)nc12` (centres unmarked) [Example 45, [8-(4-fluoro-2-methyl-phenyl)-[1,2,4]triazolo[1,5-a]pyridine-2-yl]-(1-isobutyl-4,5,6,7-tetrahydro-1H-indazol-5-yl)-amine], the inhibition at 10 µM in test [1] (setting [5]) is < 40%; in test [1] (setting [6]), 2%; in test [3] (setting [8]), < 40%; in test [3] (setting [9]), 33%; in test [4] (setting [10]) it was < 40%; in test [4] (setting [11]), 30%. Further, in test [2] (setting [7]), inhibition was half-maximal at 3400 nM (IC50).

As to `CCCn1ncc2c1CCC(Nc1nc3c(-c4ccc(F)cc4C)cccn3n1)C2` (centres unmarked) [Example 43, [8-(4-fluoro-2-methyl-phenyl)-[1,2,4]triazolo[1,5-a]pyridine-2-yl]-(1-propyl-4,5,6,7-tetrahydro-1H-indazol-5-yl)-amine], the inhibition at 10 µM is 40 to 80% in test [1] (setting [5]); 40% in test [1] (setting [6]); < 40% in test [3] (setting [8]); 11% in test [3] (setting [9]); < 40% in test [4] (setting [10]); 26% in test [4] (setting [11]). In test [2] (setting [7]), it took 60 nM to reach half-maximal inhibition (IC50).

Consider `CCn1ncc2c1CCC(Nc1nc3c(-c4cccnc4OC)cccn3n1)C2` (centres unmarked) [Example 69, (1-Ethyl-4,5,6,7-tetrahydro-1H-indazol-5-yl)-[8-(2-methoxy-pyridin-3-yl)-[1,2,4]triazolo[1,5-a]pyridine-2-yl]-amine], for which the inhibition at 10 µM in test [1] (setting [5]) is < 40%; in test [1] (setting [6]), 39%; in test [3] (setting [8]), < 40%; in test [3] (setting [9]) it was 16%; in test [4] (setting [10]), < 40%; in test [4] (setting [11]), 16%. This compound gave an IC50 in test [2] (setting [7]) of 500 nM.

On to `Cc1cc(F)ccc1-c1cccn2nc(NC3CCc4c(cnn4C)C3)nc12` (centres unmarked) [Example 10, [8-(4-fluoro-2-methyl-phenyl)-[1,2,4]triazolo[1,5-a]pyridine-2-yl]-(1-methyl-4,5,6,7-tetrahydro-1H-indazol-5-yl)-amine], for which the inhibition at 10 µM in test [1] (setting [5]) was < 40%; in test [1] (setting [6]) it was 37%; in test [3] (setting [8]), < 40%; in test [3] (setting [9]), 22%; in test [4] (setting [10]) it was < 40%; in test [4] (setting [11]) it was 18%. Moreover, the IC50 in test [2] (setting [7]) came to 380 nM.

On to `CC1(C)NC(=O)c2ccc(Nc3nc4c(-c5cccc(F)c5)cccn4n3)cc21` [Cpd. 302 in WO09155551, reference compound], for which the inhibition at 10 µM in test [1] (setting [5]) was > 80%; in test [1] (read-out: % Inhibition mean), 99%; in test [3] (setting [8]), > 80%; in test [3] (read-out: % Inhibition mean), 96%; in test [4] (setting [10]), > 80%; in test [4] (read-out: % Inhibition mean) it was 98%. The IC50 in test [2] (Homo sapiens, H4 neuroglioma cells, same assay as table 4a, prior art compounds, Table 4b) was > 10000 nM. Besides, the “modulation of γ-secretase (in words)” value in test [2] (tables 4a/4b) is listed as “do not show any modulation”.
